Measurements published in ChEMBL document CHEMBL5380816, “Inclusion of Nitrofurantoin into the Realm of Cancer Chemotherapy via Biology-Oriented Synthesis and Drug Repurposing” (J Med Chem, 2023).
pIC50: −log10 of the molar value. Activity calls are given as the source filed them. The rule behind the calls is not given here.

Experiments:
[1] = system: Caco-2; test: Induction of apoptosis in human Caco-2 cells assessed as total apoptotic cells incubated at 0.098 uM for 72 hrs by annexin V-FITC based propidium iodide dual staining assay (reference value: 0.04 +/- 0.005%); assay type: functional
[2] = system: HepG2; test: Induction of apoptosis in human HepG2 cells assessed as late apoptotic cells by measuring orange to red patch incubated at 0.098 uM for 72 hrs by acridine orange-ethidium bromide dual staining based fluorescence microscopic analysis; assay type: functional, cell-based
[3] = system: HeLa; test: Induction of apoptosis in human HeLa cells assessed as early apoptotic cells incubated at 0.098 uM for 72 hrs by annexin V-FITC based propidium iodide dual staining assay (reference value: 2.77%); assay type: functional
[4] = system: HeLa; test: Induction of apoptosis in human HeLa cells assessed as total apoptotic cells incubated at 0.098 uM for 72 hrs by annexin V-FITC based propidium iodide dual staining assay (reference value: 0 +/- 0.035%); assay type: functional
[5] = system: HeLa; test: Anticancer activity against human HeLa cells assessed as round cells incubated at 0.098uM for 72 hrs by phase contrast inverted microscopic analysis; assay type: functional, cell-based
[6] = system: HeLa; test: Induction of apoptosis in human HeLa cells assessed as late apoptotic cells by measuring orange to red patch incubated at 0.098 uM for 72 hrs by acridine orange-ethidium bromide dual staining based fluorescence microscopic analysis; assay type: functional, cell-based
[7] = system: HepG2; test: Anticancer activity against human HepG2 cells assessed as round cells incubated at 0.098uM for 72 hrs by phase contrast inverted microscopic analysis; assay type: functional, cell-based
[8] = system: MCF7; test: Induction of oxidative stress in human MCF7 cells assessed as cell death by measuring redox alteration fluorescence incubated at 0.098 uM for 72 hrs in presence of dihydro dichlorofluorescein diacetate by DCFH-DA based flow cytometric analysis relative to control; assay type: functional
[9] = system: HepG2; test: Induction of apoptosis in human HepG2 cells assessed as caspase3/7 activation at 0.017 uM using caspase-glo 3/7 as substrate relative to control; assay type: functional
[10] = system: Caco-2; test: Induction of apoptosis in human Caco-2 cells assessed as early apoptotic cells incubated at 0.017 uM for 72 hrs by annexin V-FITC based propidium iodide dual staining assay (reference value: 0.07%); assay type: functional
[11] = system: HepG2; test: Induction of oxidative stress in human HepG2 cells assessed as cell death by measuring redox alteration fluorescence incubated at 0.017 uM for 72 hrs in presence of dihydro dichlorofluorescein diacetate by DCFH-DA based flow cytometric analysis relative to control; assay type: functional
[12] = system: MCF7; test: Induction of apoptosis in human MCF7 cells assessed as caspase3/7 activation at 0.017 uM using caspase-glo 3/7 as substrate relative to control; assay type: functional
[13] = system: HepG2; test: Induction of apoptosis in human HepG2 cells assessed as early apoptotic cells by measuring bright green patch incubated at 0.11 uM for 72 hrs by acridine orange-ethidium bromide dual staining based fluorescence microscopic analysis; assay type: functional, cell-based
[14] = system: HeLa; test: Anticancer activity against human HeLa cells assessed as absence of normal spindle shape incubated at 0.11 uM for 72 hrs by phase contrast inverted microscopic analysis; assay type: functional, cell-based
[15] = system: MCF7; test: Anticancer activity against human MCF7 cells assessed as cell shrinkage incubated at 0.11 uM for 72 hrs by phase contrast inverted microscopic analysis; assay type: functional, cell-based
[16] = system: MCF7; test: Anticancer activity against human MCF7 cells assessed as round cells incubated at 0.11 uM for 72 hrs by phase contrast inverted microscopic analysis; assay type: functional, cell-based
[17] = system: HeLa; test: Induction of apoptosis in human HeLa cells assessed as necrotic cells incubated at 0.11 uM for 72 hrs by annexin V-FITC based propidium iodide dual staining assay (reference value: 0%); assay type: functional
[18] = system: dsDNA; test: Induction of damage in dsDNA (unknown origin) assessed as disrupted by DNA by measuring decrease in fluorescence intensity at 100 uM by EvaGreen based fluorescence plate reader analysis; assay type: nucleic-acid assay; conditions: time <= 160.0 min, TDE = time-dependent effect
[19] = system: HepG2; test: Induction of apoptosis in human HepG2 cells assessed as late apoptotic cells incubated at 0.11 uM for 72 hrs by annexin V-FITC based propidium iodide dual staining assay (reference value: 0.66%); assay type: functional
[20] = system: HepG2; test: Induction of apoptosis in human HepG2 cells assessed as late apoptotic cells by measuring orange to red patch incubated at 0.11 uM for 72 hrs by acridine orange-ethidium bromide dual staining based fluorescence microscopic analysis; assay type: functional, cell-based
[21] = system: HeLa; test: Induction of apoptosis in human HeLa cells assessed as viable cells incubated at 0.11 uM for 72 hrs by annexin V-FITC based propidium iodide dual staining assay (reference value: 97.23%); assay type: functional; conditions: read-out: Activity
[22] = system: dsDNA; test: Induction of damage in dsDNA (unknown origin) assessed as disrupted by DNA by measuring decrease in fluorescence intensity at 100 uM incubated for 2.5 hrs by EvaGreen based fluorescence plate reader analysis; assay type: nucleic-acid assay
[23] = system: Calf thymus DNA; test: Induction of calf thymus DNA damage assessed as disrupted by DNA by measuring decrease in fluorescence intensity at 200 uM by EvaGreen based fluorescence plate reader analysis; assay type: nucleic-acid assay; conditions: Bos taurus
[24] = system: Caco-2; test: Induction of oxidative stress in human Caco-2 cells assessed as cell death by measuring redox alteration fluorescence incubated at 0.11 uM for 72 hrs in presence of dihydro dichlorofluorescein diacetate by DCFH-DA based flow cytometric analysis relative to control; assay type: functional
[25] = system: MDA-MB-231; test: Anticancer activity against human MDA-MB-231 cells incubated for 24 hrs by MTT assay; assay type: functional, cell-based; conditions: MDA-MB-231, 24 h
[26] = system: Caco-2; test: Induction of apoptosis in human Caco-2 cells assessed as caspase3/7 activation at 0.097 uM using caspase-glo 3/7 as substrate relative to control; assay type: functional
[27] = system: HepG2; test: Induction of apoptosis in human HepG2 cells assessed as late apoptotic cells by measuring orange to red patch incubated at 0.097 uM for 72 hrs by acridine orange-ethidium bromide dual staining based fluorescence microscopic analysis; assay type: functional, cell-based
[28] = system: HepG2; test: Anticancer activity against human HepG2 cells assessed as smaller cells incubated at 0.097uM for 72 hrs by phase contrast inverted microscopic analysis; assay type: functional, cell-based
[29] = system: MCF7; test: Induction of oxidative stress in human MCF7 cells assessed as cell death by measuring redox alteration fluorescence incubated at 0.11 uM for 72 hrs in presence of dihydro dichlorofluorescein diacetate by DCFH-DA based flow cytometric analysis relative to control; assay type: functional
[30] = system: HepG2; test: Induction of apoptosis in human HepG2 cells assessed as necrotic cells incubated at 0.097 uM for 72 hrs by annexin V-FITC based propidium iodide dual staining assay (reference value: 0.33%); assay type: functional
[31] = system: HeLa; test: Induction of apoptosis in human HeLa cells assessed as necrotic cells incubated at 0.097 uM for 72 hrs by annexin V-FITC based propidium iodide dual staining assay (reference value: 0%); assay type: functional
[32] = system: Caco-2; test: Anticancer activity against human Caco-2 cells assessed as cell shrinkage incubated at 0.097uM for 72 hrs by phase contrast inverted microscopic analysis; assay type: functional, cell-based
[33] = system: Caco-2; test: Anticancer activity against human Caco-2 cells assessed as absence of normal spindle shape incubated at 0.097uM for 72 hrs by phase contrast inverted microscopic analysis; assay type: functional, cell-based
[34] = system: Caco-2; test: Induction of apoptosis in human Caco-2 cells assessed as viable cells incubated at 0.097 uM for 72 hrs by annexin V-FITC based propidium iodide dual staining assay (reference value: 99.89%); assay type: functional; conditions: read-out: Activity

SMILES: O=C(CN1C(=O)CN(/N=C/c2ccc([N+](=O)[O-])o2)C1=O)c1ccc(Cl)cc1
- Activity [1]: 30.95%
- Activity [2]: Active
- Activity [3]: 6.1%
- Activity [4]: 64.08%
- Activity [5]: Active
- Activity [6]: Active
- Activity [7]: Active

SMILES: O=c1[nH]cc(F)c(=O)[nH]1 [FLUOROURACIL]
- Activity [8]: 4.24%
- Activity [9]: 12%
- Activity [10]: 6.74%
- Activity [11]: 4.78%
- Activity [12]: 12%

SMILES: C#CCN1C(=O)CN(/N=C/c2ccc([N+](=O)[O-])o2)C1=O
- Activity [13]: Active
- Activity [14]: Active
- Activity [15]: Active
- Activity [16]: Active
- Activity [17]: 2.48%
- Activity [18]: Tde
- Activity [19]: 59.49%
- Activity [20]: Active
- viability at 0.11 µM [21]: 66.4%
- Activity [22]: Active
- Activity [23]: Active
- Activity [24]: 45.56%
- pIC50 [25]: 3.62

SMILES: NS(=O)(=O)c1ccc(-n2cc(CN3C(=O)CN(/N=C/c4ccc([N+](=O)[O-])o4)C3=O)nn2)cc1
- Activity [26]: 58%
- Activity [27]: Active
- Activity [28]: Active
- Activity [29]: 51.08%
- Activity [30]: 0%
- Activity [31]: 4.26%
- Activity [32]: Active
- Activity [33]: Active
- viability at 0.097 µM [34]: 32.8%
